Numbered stars: 1 amine (or outer) side, 2 acyl side, 3 side chain; on linkers, the order of the positions; unused ones are H or OH. Bridge positions count the residues as written; N and C are the ends. Side chains are listed from the residue outwards. Peptide text beside a SMILES is read from it. * marks the point of attachment. C20 diacid = O=C(O)CCCCCCCCCCCCCCCCCCC(=O)*; γGlu = O=C(O)[C@H](CCC(=O)[*:2])N[*:1]
Key:
[1] = biological target: T1, rat calcitonin receptor (rat CTR) (Rattus norvegicus, UniProt P32214); test: cAMP production in HEK cells with stable recombinant expression of rat calcitonin receptor (rat CTR); type: cell-based; settings: cAMP HTRF, assay buffer with 0.1% BSA, 30 minutes
T1 construct: expressed in transfected cells
T1 sequence (P32214 25-516): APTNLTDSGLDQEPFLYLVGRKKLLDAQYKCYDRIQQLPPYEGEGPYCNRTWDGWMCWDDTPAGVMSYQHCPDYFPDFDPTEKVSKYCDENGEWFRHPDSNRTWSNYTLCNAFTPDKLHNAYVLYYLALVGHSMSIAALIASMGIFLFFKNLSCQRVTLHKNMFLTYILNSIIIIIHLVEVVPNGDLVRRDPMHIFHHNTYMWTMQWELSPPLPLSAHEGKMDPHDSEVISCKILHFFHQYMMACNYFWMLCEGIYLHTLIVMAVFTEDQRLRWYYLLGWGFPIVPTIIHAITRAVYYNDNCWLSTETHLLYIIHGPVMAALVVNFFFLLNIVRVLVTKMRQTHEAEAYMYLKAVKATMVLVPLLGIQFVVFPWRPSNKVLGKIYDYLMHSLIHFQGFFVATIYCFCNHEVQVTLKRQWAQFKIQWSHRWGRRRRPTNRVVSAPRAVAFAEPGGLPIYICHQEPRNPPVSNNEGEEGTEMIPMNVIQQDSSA
Method: (§1) The functional activities of lipidated pramlintide analogue peptides, such as cAMP production, were tested in 1321N1 cell line with stable recombinant expression of human calcitonin receptor (hCTR) or human amylin receptor (calcitonin receptor co-expressed with receptor activity modifying protein, RAMP3) (hAMYR3) or HEK cells with stable recombinant expression of rat calcitonin receptor (rat CTR) or rat amylin receptor (calcitonin receptor co-expressed with receptor activity modifying protein, RAMP3) (Rat AMYR3). […]
(§2) The test peptide stock was prepared in DMSO and diluted in assay buffer to reach stated concentrations and transferred in duplicates into a 384-black shallow well microtitre assay plate (Corning #3676). Cells were added to the assay plate, incubated at room temperature for 30 minutes and the CAMP level measured using CAMP dynamic 2 HTRF kit (Cisbio, Cat #62AM4PEJ), following the two step protocol as per manufacturer's recommendations. The plates were read on an Envision (Perkin Elmer) using excitation wavelength of 320 nm and emission wavelengths of 620 nm & 665 nm.
(§3) Data was transformed to % Delta F as described in the manufacturer's guidelines and analyzed as percent activation of maximal amylin or calcitonin effect by 4-parameter logistic fit to determine EC50 values. […]

[2] = biological target: T2, human calcitonin receptor (hCTR) (Homo sapiens, UniProt P30988); test: cAMP production in 1321N1 cells with stable recombinant expression of human calcitonin receptor (hCTR); type: cell-based; settings: 1321N1 cells expressing human calcitonin receptor
T2 construct: expressed in transfected cells
T2 sequence (P30988 25-474): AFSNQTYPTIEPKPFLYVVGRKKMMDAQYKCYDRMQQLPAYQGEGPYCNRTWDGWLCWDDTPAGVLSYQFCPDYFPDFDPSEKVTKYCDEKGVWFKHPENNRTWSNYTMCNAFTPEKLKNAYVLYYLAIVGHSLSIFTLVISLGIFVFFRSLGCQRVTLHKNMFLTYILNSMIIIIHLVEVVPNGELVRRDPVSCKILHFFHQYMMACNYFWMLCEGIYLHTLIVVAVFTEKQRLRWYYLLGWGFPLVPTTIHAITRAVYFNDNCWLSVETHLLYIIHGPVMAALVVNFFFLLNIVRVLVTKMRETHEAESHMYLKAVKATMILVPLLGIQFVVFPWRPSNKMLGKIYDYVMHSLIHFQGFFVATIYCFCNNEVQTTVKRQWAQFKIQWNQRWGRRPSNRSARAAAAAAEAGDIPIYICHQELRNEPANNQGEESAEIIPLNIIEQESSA
Method: The functional activities of lipidated pramlintide analogue peptides, such as cAMP production, were tested in 1321N1 cell line with stable recombinant expression of human calcitonin receptor (hCTR) or human amylin receptor (calcitonin receptor co-expressed with receptor activity modifying protein, RAMP3) (hAMYR3) or HEK cells with stable recombinant expression of rat calcitonin receptor (rat CTR) or rat amylin receptor (calcitonin receptor co-expressed with receptor activity modifying protein, RAMP3) (Rat AMYR3).
Cryopreserved cell stock was thawed rapidly in a water-bath, suspended in assay buffer (0.1% BSA (Sigma #A3059) in HBSS (Sigma #H8264) with 25 mM HEPES, pH 7.4 and containing 0.5 mM IB MX (Sigma #17018)) and spun at 240×g for 5 minutes. Cells were re-suspended in assay buffer at a batch-dependent optimized concentration (e.g. hCTR cells at 0.125×10^5 cells/mL, hAMYR3 cells at 0.125×10^5 cells/mL, rat CTR cells at 1×10^5 cells/mL, rat AMYR3 at 2×10^5 cells/mL).
as §2
Data was transformed to % Delta F as described in the manufacturer's guidelines and analyzed as percent activation of maximal amylin or calcitonin effect by 4-parameter logistic fit to determine EC50 values. The selectivity of a peptide to hAMYR vs hCTR is defined as a ratio of EC50 values at the two receptors.

[3] = Thioflavin T fibrillation assay; type: physicochemical; settings: 1 mg/mL in 25 mM sodium acetate buffer pH 4.0, 37° C., 6 days, orbital shaking; >144 h = no increase
Summary of the method: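 Peptides at 1 mg/mL in 25 mM sodium acetate pH 4.0 were mixed with ThT (0.25 mM stock) and held 6 days at 37 °C with intermittent orbital shaking at 500–750 rpm. Fluorescence (ex 444/em 480 nm) was read every 30 min, with buffer baseline correction and 5 replicates. Value: mean time to a detectable fluorescence increase.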

[4] = biological target: T3, rat amylin receptor (calcitonin receptor co-expressed with receptor activity modifying protein, RAMP3) (Rat AMYR3) (Rattus norvegicus, UniProt P32214+Q9JJ73); test: cAMP production in HEK cells with stable recombinant expression of rat amylin receptor (Rat AMYR3); type: cell-based; settings: cAMP HTRF, assay buffer with 0.1% BSA, 30 minutes
T3 construct: expressed in transfected cells
T3 sequence (P32214 25-516): T1 sequence (P32214 25-516)
T3 sequence (Q9JJ73 23-147 partner): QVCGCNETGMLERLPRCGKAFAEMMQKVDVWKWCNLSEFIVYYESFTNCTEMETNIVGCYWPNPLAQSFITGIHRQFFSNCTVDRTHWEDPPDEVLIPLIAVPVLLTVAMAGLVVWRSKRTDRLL
Method: as §1, §2, §3

EC50 [1] | EC50 [2] | Time taken to detect increase in fluorescence intensity [3] | EC50 [4] | Compound
22.6 nM | 7.65 nM | <5 h | 0.0226 nM | CC[C@H](C)[C@H](NC(=O)[C@H](C)NC(=O)[C@@H]1CCCN1C(=O)[C@H](Cc1ccccc1)NC(=O)[C@H](CC(N)=O)NC(=O)[C@@H]1CCCN1C(=O)[C@H](CO)NC(=O)[C@H](CO)NC(=O)[C@H](Cc1c[nH]cn1)NC(=O)[C@@H](NC(=O)[C@H](CC(C)C)NC(=O)[C@H](Cc1ccccc1)NC(=O)[C@H](CC(N)=O)NC(=O)[C@H](C)NC(=O)[C@H](CC(C)C)NC(=O)[C@H](CCCNC(=N)N)NC(=O)[C@H](CCC(N)=O)NC(=O)[C@@H](NC(=O)[C@H](C)NC(=O)[C@@H]1CSSC[C@H](NC(=O)[C@@H](N)CCCCNC(=O)CC[C@H](NC(=O)CC[C@H](NC(=O)CCCCCCCCCCCCCCCCCCC(=O)O)C(=O)O)C(=O)O)C(=O)N[C@@H](CC(N)=O)C(=O)N[C@@H]([C@@H](C)O)C(=O)N[C@@H](C)C(=O)N[C@@H]([C@@H](C)O)C(=O)N1)[C@@H](C)O)C(C)C)C(=O)N[C@@H](CC(C)C)C(=O)N[C@@H](CO)C(=O)N1CCC[C@H]1C(=O)N[C@H](C(=O)N[C@@H](CC(N)=O)C(=O)N[C@H](C(=O)NCC(=O)N[C@@H](CO)C(=O)N[C@@H](CC(N)=O)C(=O)N[C@H](C(=O)N[C@@H](Cc1ccc(O)cc1)C(N)=O)[C@@H](C)O)C(C)C)[C@@H](C)O [Peptide 115] (H-K([γGlu-γGlu-C20 diacid])CNTATCATQRLANFLVHSSPNFPAILSPTNVGSNTY-NH2; disulfide 2-7; N-terminus assumed)
4.87 nM | 15.8 nM | <5 h | 0.0122 nM | CC[C@H](C)[C@H](NC(=O)[C@@H]1CCCN1C(=O)CNC(=O)[C@H](Cc1ccccc1)NC(=O)[C@H](CC(N)=O)NC(=O)[C@H](CC(N)=O)NC(=O)[C@H](CO)NC(=O)[C@H](CO)NC(=O)[C@H](Cc1c[nH]cn1)NC(=O)[C@@H](NC(=O)[C@H](CC(C)C)NC(=O)[C@H](Cc1ccccc1)NC(=O)[C@H](CC(N)=O)NC(=O)[C@H](C)NC(=O)[C@H](CC(C)C)NC(=O)[C@H](CCCNC(=N)N)NC(=O)[C@H](CCC(N)=O)NC(=O)[C@@H](NC(=O)[C@H](C)NC(=O)[C@@H]1CSSC[C@H](NC(=O)[C@@H](N)CCCCNC(=O)CC[C@H](NC(=O)CC[C@H](NC(=O)CCCCCCCCCCCCCCCCCCC(=O)O)C(=O)O)C(=O)O)C(=O)N[C@@H](CC(N)=O)C(=O)N[C@@H]([C@@H](C)O)C(=O)N[C@@H](C)C(=O)N[C@@H]([C@@H](C)O)C(=O)N1)[C@@H](C)O)C(C)C)C(=O)N[C@@H](CC(C)C)C(=O)N1CCC[C@H]1C(=O)N1CCC[C@H]1C(=O)N[C@H](C(=O)N[C@@H](CC(N)=O)C(=O)N[C@H](C(=O)NCC(=O)N[C@@H](CO)C(=O)N[C@@H](CCCNC(=N)N)C(=O)N[C@H](C(=O)N[C@@H](Cc1ccc(O)cc1)C(N)=O)[C@@H](C)O)C(C)C)[C@@H](C)O [Peptide 114] (H-K([γGlu-γGlu-C20 diacid])CNTATCATQRLANFLVHSSNNFGPILPPTNVGSRTY-NH2; disulfide 2-7; N-terminus assumed)
